# Test results: US20230113802A1, “COMPOSITION AND METHOD TO PREPARE LONG-ACTING INJECTABLE SUSPENSION CONTAINING MULTIPLE CANCER DRUGS” (University of Washington, priority 2020, published 2023)
# Where two headings read alike, the source gives them in different places. Marks after values point to notes of the source that are not given here.
# How the values were obtained:
# Format in all cases: in vivo, BALB/c mice
# [1] = Pharmacokinetic study of GT DcNP vs CrEL drug combination in mice (Example 1); conditions: GT 50/5 mg/kg IV; for AUC(0-t): female, BALB/c, mouse, iv; for AUC(0-t) / Cmax / t1/2apparent: plasma
# Protocol: Mice were administered with either a CrEL drug combination or GT DcNP intravenously with doses of 50/5 mg/kg GT. […] Each group had three animals and each animal was bled once only. Retro-orbital blood collection in this study was a terminal procedure and animals were under anesthesia at the time of bleeding. After blood collection, mice were euthanized by CO2 overdose followed by cervical dislocation as the secondary method of euthanasia. Drugs in plasma were extracted and analyzed by LC-MS/MS as described below.
# A liquid-liquid extraction was used to extract drugs from plasma or tissue homogenates. […] Samples were spiked by internal standards (see below) followed by the addition of acetonitrile. […] The dried samples were reconstituted in 20% methanol and 80% water in 50 μL.
# Drugs were quantified by a Shimadzu HPLC system coupled to a 3200 QTRAP mass spectrometer (Applied Biosystems, Grand Island, N.Y.). The HPLC system consisted of two Shimadzu LC-20A pumps, a DGU-20A5 degasser, and a Shimadzu SIL-20AC HT autosampler. The mass spectrometer was equipped with an electrospray ionization (ESI) TurbolonSpray source. The system was operated with Analyst software, version 1.5.2 (ABSciex, Framingham, Mass.).
# Chromatographic separation of drugs was achieved using a Synergi column (100×2.0 mm; 4-μm particle size) with an inline C8 guard column (4.0×2.0 mm) (Phenomenex, Torrance, Calif.). An ammonium acetate buffer/reagent alcohol gradient was used to separate components. Analytes were monitored using multiple-reaction monitoring for positive ions.
# [2] = Pharmacokinetic study of GT in DcNPs compared to CrEL (Example 2), plasma G, T and dFdU; conditions: for MRT / concentration at 3 h / AUC(0-inf) / C0 / half-life / Vd: female, BALB/c, mouse, plasma; for MRT: read-out: MRT (mean residence time); for concentration at 3 h: intravenous; for C0: read-out: C0 (concentration at time 0, back extrapolated); for half-life: read-out: T1/2,app (converted); for Vd: read-out: Vss
# From the text: Drugs extracted from biological matrices such as plasma or tissue homogenates were quantified by a Shimadzu HPLC system coupled to a 3200 QTRAP mass spectrometer (Applied Biosystems, Grand Island, N.Y.). The HPLC system consisted of two Shimadzu LC-20A pumps, a DGU-20A5 degasser, and a Shimadzu SIL-20AC HT autosampler. The mass spectrometer was equipped with an electrospray ionization (ESI) TurbolonSpray source. The system was operated with Analyst software, version 1.5.2 (ABSciex, Framingham, Mass.). Chromatographic separation of G and T was achieved using a Synergi column (100×2.0 mm; 4-μm particle size) (Phenomenex, Torrance, Calif.) with an inline C8 guard column (4.0×2.0 mm) also from Phenomenex. The flow rate was set to 0.5 mL/min with a 5 μl sample injection volume. The mobile phase for separation consisted of pump A (20 mM Ammonium Acetate in water) and B (Reagent Alcohol). […] The needle was washed with isopropanol after each injection. Analytes were monitored using multiple-reaction monitoring (MRM) for positive ions.
# Statistical comparisons were performed using 2-sided t-tests with Welch's correction for unequal variances. Significance probability α was set at 0.05. Pharmacokinetic parameters from non-compartmental analysis were calculated using the trapezoidal rule and relevant pharmacokinetic equations shown in Table 3.
# [3] = GT localization in healthy versus 4T1 tumor bearing lung tissue; conditions: for concentration at 1 h / concentration at 24 h / Kp at 1 h / Kp at 24 h: female, BALB/c, mouse, intravenous; for concentration at 24 h / Kp at 24 h: 24 hours after DcNP; for Kp at 1 h / Kp at 24 h: lung/plasma, read-out: Lung/Plasma Ratio
# Protocol: Female BALB/c mice were injected with 2×10^5 4 T1 metastatic breast cancer cells that express luciferase as a marker intravenously by tail vein on day 0. Stable expression of luciferase in these cells allows for bioluminescent monitoring of tumor growth and metastasis. Over a 14-day period, mouse behavior and health conditions were monitored daily and body weight measurements were taken every 2 days. […] The bioluminescence imaging was acquired through a XENOGEN IVIS 200 imaging system (PerkinElmer, Waltham, Mass.). The bioluminescence imaging parameters for live mice were set as follows: field of view, 24; excitation filter, closed; emission filter, open; exposure time, 180 sec; binning factor, 4; f/stop, 2. Bioluminescence intensity from mice were integrated using Live Image software (PerkinElmer, Waltham, Mass.). Mice were then intravenously administered GT in DcNPs at a dose of 50 mg/kg G and 5 mg/kg T or the same dose of drug in control suspension (CrEL) and sacrificed at fixed time points.
# To determine whether DcNPs enhance GT distribution into target tissues, namely cancer nodules, the differential localization of GT in DcNP or CrEL form in healthy versus cancer nodule bearing mice was investigated. Since lungs are a common metastatic site for breast cancer disease progression, a model for metastasis that forms cancer nodules in the lungs was used. Cancer nodules were established in female BALB/c mice via intravenous inoculation of syngeneic breast cancer cells (4T1). […] Once nodules were established and confirmed with IVIS imaging, mice were administered with GT in either DcNP or conventionally solubilized form at equivalent doses (50/5 mg/kg, GT) and euthanized at pre-determined time intervals. Nodule-free and nodule-bearing lungs were harvested, and lung tissue drug concentrations were compared in these two groups.
# [4] = iv, 50 mg/kg, Control (CrEL suspension), 50/5 mg/kg G/T IV, mice
# [5] = iv, 50 mg/kg, GT DcNP, 50/5 mg/kg G/T IV, mice
compound,measurement,setting,value
"Nc1ccn([C@@H]2O[C@H](CO)[C@@H](O)C2(F)F)c(=O)n1 [Gemcitabine, 4-amino-1-[(2R,4R,5R)-3,3-difluoro-4-hydroxy-5-(hydroxymethyl)oxolan-2-yl]pyrimidin-2-one]","increase in Cmax, GT DcNP compared to CrEL",[1],~10%
same,AUC(0-t),[1]; given in CrEL drug dosage form,15.3 µg·h/mL
same,AUC(0-t),[1]; given in DcNP dosage form,868 µg·h/mL
same,Cmax,[1]; given in CrEL drug dosage form,165.12^b μg/mL
same,t1/2apparent,[1]; given in CrEL drug dosage form,1.60 h
same,Cmax,[1]; given in DcNP dosage form,181.4 µg/mL
same,t1/2apparent,[1]; given in DcNP dosage form,13.72 h
same,AUC0 to ∞ Ratio (DcNP to control),"[2]; 50/5 mg/kg G/T IV, mice",61.0
same,C0 Ratio (DcNP to control),"[2]; 50/5 mg/kg G/T IV, mice",1.1
same,Dose/AUC Ratio (DcNP to control),"[2]; 50/5 mg/kg G/T IV, mice",0.02
same,MRT Ratio (DcNP to control),"[2]; 50/5 mg/kg G/T IV, mice",45.2
same,"T1/2,app Ratio (DcNP to control)","[2]; 50/5 mg/kg G/T IV, mice",8.6
same,Vss Ratio (DcNP to control),"[2]; 50/5 mg/kg G/T IV, mice",0.7
same,"plasma concentration at 3 hours, DcNP times greater than CrEL","[2]; 50/5 mg/kg G/T IV, mice",470 times
same,AUC0 to ∞ Ratio (DcNP to control),"[2]; 50/5 mg/kg G/T IV, mice, listed as G",61
same,AUC0 to ∞ Ratio (DcNP to control),"[2]; 50/5 mg/kg G/T IV, mice, listed as gemcitabine",50
same,Dose/AUC (apparent clearance),"[2]; Control (CrEL suspension), 50/5 mg/kg G/T IV, mice",65.2 mL/h
same,G to dFdU ratio in plasma at 6 hours,[2]; CrEL control dosage form,0.01
same,difference in mean residence times of G and T after DcNP administration,[2]; GT DcNP,11.3 fold
same,Dose/AUC (apparent clearance),"[2]; GT DcNP, 50/5 mg/kg G/T IV, mice",1.1 mL/h
same,plasma concentration within 15 minutes,"[2]; after GT in CrEL control dosage form IV, mice",12023.5 ng/mL
same,mean plasma concentration at 3 hours,"[2]; after control CrEL dosing, 50/5 mg/kg G/T IV, mice, listed as G",87.3 ng/mL
same,MRT,"[2]; 50 mg/kg, Control (CrEL suspension), 50/5 mg/kg G/T IV, mice",0.25 h
same,concentration at 3 h,"[2]; after GT DcNP dosing, 50/5 mg/kg G/T IV, mice",41100 ng/mL
same,concentration at 3 h,"[2]; after control CrEL dosing, 50/5 mg/kg G/T IV, mice",87.3 ng/mL
same,AUC(0-inf),[2]; [4],15.3 µg·h/mL
same,C0,[2]; [4],165000 ng/mL
same,half-life,[2]; [4],1.6 h
same,Vd,[2]; [4],0.0166 L
same,AUC(0-inf),[2]; [5],937 µg·h/mL
same,C0,[2]; [5],181000 ng/mL
same,MRT,[2]; [5],11.3 h
same,half-life,[2]; [5],13.7 h
same,Vd,[2]; [5],0.0121 L
same,half-life,"[2]; iv, GT DcNP, 50/5 mg/kg G/T IV, mice",13.7 h
same,time over which concentrations in plasma were detected,"[2]; mice administered GT DcNPs, 48-hour study",≥ 48 h
same,plasma concentration by 24 hours,[2]; mice treated with the CrEL control formulation,fell below the detection limit
same,"lung-to-plasma ratio, cancer nodule bearing mice times greater than healthy",[3]; 24 hours after GT DcNP,5 times
same,concentration at 1 h,"[3]; lung, 1 hour after DcNP, 4T1 tumor bearing mice, read-out: Lung",12500 ± 4900 ng/g
same,concentration at 1 h,"[3]; lung, 1 hour after DcNP, Healthy mice, 50/5 mg/kg GT IV, read-out: Lung",7500 ± 1200 ng/g
same,concentration at 1 h,"[3]; lung, 1 hour after control (CrEL), 4T1 tumor bearing mice, 50/5 mg/kg GT IV, read-out: Lung",6000 ± 800 ng/g
same,concentration at 1 h,"[3]; lung, 1 hour after control (CrEL), Healthy mice, 50/5 mg/kg GT IV, geometric mean ± SD, read-out: Lung",900 ± 400 ng/g
same,concentration at 24 h,"[3]; lung, 4T1 tumor bearing mice, read-out: Lung",3500 ± 1000 ng/g
same,concentration at 24 h,"[3]; lung, Healthy mice, read-out: Lung",300 ± 100 ng/g
same,Kp at 1 h,"[3]; 1 hour after DcNP, 4T1 tumor bearing mice",0.2 ± 0.1
same,Kp at 1 h,"[3]; 1 hour after DcNP, Healthy mice",0.1 ± 0.2
same,Kp at 1 h,"[3]; 1 hour after control (CrEL), 4T1 tumor bearing mice",2.2 ± 1.4
same,Kp at 1 h,"[3]; 1 hour after control (CrEL), Healthy mice",0.9 ± 0.3
same,Kp at 24 h,[3]; 4T1 tumor bearing mice,0.1 ± 0.03
same,Kp at 24 h,[3]; Healthy mice,0.02 ± 0.01
same,concentration at 1 h,"[3]; plasma, 1 hour after DcNP, 4T1 tumor bearing mice, read-out: Plasma",72600 ± 60000 ng/mL
same,concentration at 1 h,"[3]; plasma, 1 hour after DcNP, Healthy mice, read-out: Plasma",52200 ± 64000 ng/mL
same,concentration at 1 h,"[3]; plasma, 1 hour after control (CrEL), 4T1 tumor bearing mice, read-out: Plasma",2800 ± 1400 ng/mL
same,concentration at 1 h,"[3]; plasma, 1 hour after control (CrEL), Healthy mice, read-out: Plasma",900 ± 200 ng/mL
same,concentration at 24 h,"[3]; plasma, 4T1 tumor bearing mice, read-out: Plasma",34200 ± 600 ng/mL
same,concentration at 24 h,"[3]; plasma, Healthy mice, read-out: Plasma",12700 ± 1500 ng/mL
